Source: ChEMBL document CHEMBL1201862, “PubChem BioAssay data set” (2004)
Where “and” joins values, the source holds several entries; their conditions need not be identical. Equal values may be shown once. Values belong to the molecule of their own block, whether it stands above or below them. Calls of active or inactive are those of the source. Rule as the data show it, for most assays here: actives have a measured EC50 and inactives only a lower limit.

Key:
[1] = Trypanosoma cruzi growth suppression in host cells – NIH3T3 host cells, beta-gal luminescence, confirmation (AID 2044); assay type: functional, cell-based;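 also: intracellular parasites grown in NIH/3T3 mouse fibroblasts as host cells; luminescent beta-galactosidase reporter signal from transgenic T. cruzi replicating inside host cells; inhibitors lower the luminescence signal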
[2] = NIH3T3 cell viability loss – ATP luminescence, mouse fibroblasts, counter-screen, dose response (AID 2010); assay type: functional, cell-based;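 also: cells exposed to compound for about 90 hours before reading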
[3] = biological target: T1, Heat shock factor protein 1 (Mus musculus, UniProt P38532); experiment: enhancement of HSF1-driven luciferase signal – cell-based, NIH3T3, luminescence, dose retest, confirmation (AID 435004); assay type: functional;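 also: stress induced by proteasome inhibitor MG132 added 30 min after compound; luciferase reporter driven by HSF1 response element in NIH3T3 cells; actives raise luminescence as potentiators of the MG132 stress response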
T1 sequence (P38532 whole entry): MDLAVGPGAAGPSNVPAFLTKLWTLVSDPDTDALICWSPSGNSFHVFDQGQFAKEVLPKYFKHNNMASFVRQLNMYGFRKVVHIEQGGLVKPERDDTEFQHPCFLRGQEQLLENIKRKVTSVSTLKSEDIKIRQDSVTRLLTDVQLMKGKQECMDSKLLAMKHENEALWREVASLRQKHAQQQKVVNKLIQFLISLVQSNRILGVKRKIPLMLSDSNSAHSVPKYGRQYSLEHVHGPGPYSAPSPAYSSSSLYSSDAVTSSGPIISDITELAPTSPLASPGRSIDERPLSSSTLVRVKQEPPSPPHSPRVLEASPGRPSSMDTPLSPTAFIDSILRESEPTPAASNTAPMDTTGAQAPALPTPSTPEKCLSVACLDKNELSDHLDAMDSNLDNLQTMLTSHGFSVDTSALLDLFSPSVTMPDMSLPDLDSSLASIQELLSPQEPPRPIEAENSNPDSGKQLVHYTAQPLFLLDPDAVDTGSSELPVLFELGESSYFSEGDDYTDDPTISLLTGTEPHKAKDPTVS

[4] = biological target: Cytochrome P450 3A4 (Homo sapiens, UniProt P08684);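 also: CYP3A4 tested as one member of a cytochrome P450 panel screen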
Cytochrome P450 3A4, sequence (P08684 whole entry): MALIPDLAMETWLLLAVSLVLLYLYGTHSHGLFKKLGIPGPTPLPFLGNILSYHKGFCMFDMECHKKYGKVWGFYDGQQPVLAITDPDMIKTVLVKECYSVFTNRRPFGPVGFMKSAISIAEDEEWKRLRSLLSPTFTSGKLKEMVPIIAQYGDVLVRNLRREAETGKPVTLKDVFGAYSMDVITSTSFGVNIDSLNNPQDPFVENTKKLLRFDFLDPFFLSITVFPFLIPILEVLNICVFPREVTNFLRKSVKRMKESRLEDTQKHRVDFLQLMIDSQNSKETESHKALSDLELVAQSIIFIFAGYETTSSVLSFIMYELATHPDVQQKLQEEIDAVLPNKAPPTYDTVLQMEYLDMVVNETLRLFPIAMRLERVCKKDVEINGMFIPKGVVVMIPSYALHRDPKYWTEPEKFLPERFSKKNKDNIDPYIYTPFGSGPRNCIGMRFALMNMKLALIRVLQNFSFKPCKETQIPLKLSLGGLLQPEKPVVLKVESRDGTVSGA

[5] = biological target: Cytochrome P450 2D6 (Homo sapiens, UniProt P10635);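 also: CYP2D6 member of a cytochrome P450 panel assay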
Cytochrome P450 2D6, sequence (P10635 whole entry): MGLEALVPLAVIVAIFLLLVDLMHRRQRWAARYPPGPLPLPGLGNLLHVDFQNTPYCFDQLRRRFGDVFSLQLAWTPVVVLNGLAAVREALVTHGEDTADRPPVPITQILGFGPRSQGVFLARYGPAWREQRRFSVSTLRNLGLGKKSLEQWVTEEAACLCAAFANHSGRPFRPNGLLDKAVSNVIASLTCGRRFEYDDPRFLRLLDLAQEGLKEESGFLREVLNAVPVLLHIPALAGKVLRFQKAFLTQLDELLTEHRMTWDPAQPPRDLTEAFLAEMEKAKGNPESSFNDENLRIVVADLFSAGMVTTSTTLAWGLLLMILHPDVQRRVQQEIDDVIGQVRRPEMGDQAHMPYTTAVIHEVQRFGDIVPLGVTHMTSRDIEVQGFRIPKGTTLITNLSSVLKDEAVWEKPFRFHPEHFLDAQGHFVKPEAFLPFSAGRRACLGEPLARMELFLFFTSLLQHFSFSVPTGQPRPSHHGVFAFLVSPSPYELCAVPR

[6] = biological target: T2, Cytochrome P450 1A2 (Homo sapiens, UniProt P05177);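 also: PubChem cytochrome P450 panel assay, CYP1A2 panel member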
T2 sequence (P05177 whole entry): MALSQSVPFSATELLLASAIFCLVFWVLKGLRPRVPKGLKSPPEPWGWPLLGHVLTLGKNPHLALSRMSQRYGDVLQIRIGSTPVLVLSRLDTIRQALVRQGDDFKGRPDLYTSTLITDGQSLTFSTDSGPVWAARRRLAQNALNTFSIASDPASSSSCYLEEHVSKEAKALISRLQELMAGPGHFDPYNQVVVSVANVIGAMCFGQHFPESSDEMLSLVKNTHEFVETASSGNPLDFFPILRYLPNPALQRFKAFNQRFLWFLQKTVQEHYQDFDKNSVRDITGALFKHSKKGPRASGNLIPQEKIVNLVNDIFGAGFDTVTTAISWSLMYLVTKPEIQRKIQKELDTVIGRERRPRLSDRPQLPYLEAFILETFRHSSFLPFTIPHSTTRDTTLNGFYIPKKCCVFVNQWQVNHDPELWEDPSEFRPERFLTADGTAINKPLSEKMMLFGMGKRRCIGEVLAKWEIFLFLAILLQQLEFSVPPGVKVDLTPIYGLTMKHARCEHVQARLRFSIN

[7] = system: Streptococcus sp. 'group A'; experiment: Streptococcus pyogenes SK(-)GAS viability under kanamycin – luminescence, BacTiterGlo, confirmation, counter-screen for streptokinase expression inhibitor project, dose response (AID 1900); assay type: functional, organism-based
[8] = system: Streptococcus; experiment: GAS UMAA2166 growth inhibition – luminescence, BacTiterGlo, counter-screen for streptokinase expression inhibitor project, dose response (AID 1915); assay type: functional, organism-based;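 also: potency for reduction of bacterial viability or growth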

Compound: CCN1CCN(c2oc(COc3ccc(-c4ccccc4)cc3)nc2C#N)CC1
- EC50 [1]: 2.66 µM (active)
- EC50 [2]: > 60 µM (not active)

Compound: Cc1ccc2cc(C(c3nnnn3C3CCCC3)N(Cc3ccco3)Cc3cccs3)c(O)nc2c1 (stereo unspecified)
- EC50 [1]: 3.2 µM (active)
- EC50 [2]: > 60 µM (not active)

Compound: CO[C@@H]1CC=C2CCN3CCC4=C(CC(=O)OC4)[C@]23C1
- AC50 [4]: 39.8 µM (inconclusive)

Compound: CC(C)(C)NC(=O)CSc1nnc(Cc2ccc3c(c2)OCO3)n1C1CCCCC1
- AC50 [5]: 2.82 µM (inconclusive)

Compound: CN1CCN(c2ccc(NC(=O)c3ccc4c(c3)nc(O)n4Cc3ccc(F)cc3)cc2)CC1
- EC50 [1]: 0.955 µM (active)
- EC50 [2]: > 30 µM (not active)

Compound: CCSc1nnc(NC(=O)CSc2nc3c(cc2C#N)CCCC3)s1
- AC50 [5]: 3.55 µM (inconclusive)
- AC50 [6]: 15.8 µM (inconclusive)

Compound: COc1ccc(S(=O)(=O)N2CCOC23CCN(S(=O)(=O)c2ccc([N+](=O)[O-])cc2)CC3)cc1
- EC50 [1]: 2.03 µM (active)
- EC50 [2]: > 30 µM (not active)

Compound: CCCCCCCCCCCCC/C=C\[C@@H](O)[C@H](CO)NC(C)=O
- AC50 [5]: 3.98 µM (inconclusive)

Compound: c1ccc(C(c2ccccc2)c2noc(CN3CCC(c4ccncc4)CC3)n2)cc1
- EC50 [1]: 0.943 µM (active)
- EC50 [2]: > 30 µM (not active)

Compound: Cc1c(C(=O)NCc2ccc3c(c2)OCO3)oc2ccc(S(=O)(=O)N3CCC(C)CC3)cc12
- EC50 [1]: 1.04 µM (active)
- EC50 [2]: 50.9 µM (active)

Compound: CCS(=O)(=O)C(=C1NCCO1)S(=O)(=O)CC
- EC50 [3]: > 260 µM (inactive)

Compound: COc1ccccc1N1CCN(C(CNS(=O)(=O)c2cc(F)ccc2F)c2cccnc2)CC1 (stereo unspecified)
- EC50 [1]: 0.367 µM (active)
- EC50 [2]: > 60 µM (not active)

Compound: CN(C)S(=O)(=O)c1ccc(C(=O)Nc2nnc(-c3ccc4c(c3)CCCC4)o2)cc1
- EC50 [7]: 0.286 µM (active)
- EC50 [8]: 0.264 µM (active)

Compound: C[C@](N)(CCP(=O)(O)O)C(=O)O
- AC50 [6]: 39.8 µM (inconclusive)

Compound: CC(c1nnnn1C(C)(C)C)N(Cc1cccnc1)Cc1ccccc1Cl (stereo unspecified)
- EC50 [1]: 0.496 µM (active)
- EC50 [2]: > 60 µM (not active)

Compound: CCCOc1ccc(N2C(=O)CC(N(CCc3ccc(OC)c(OC)c3)C(S)=Nc3ccccc3)C2=O)cc1 (stereo unspecified)
- EC50 [1]: 2.1 µM (active)
- EC50 [2]: > 30 µM (not active)

Compound: CCCOc1ccc(NC(=O)OC2CCN(C)CC2)cc1
- EC50 [1]: 0.442 µM (active)
- EC50 [2]: > 60 µM (not active)

Compound: CCOc1cc(CNc2cccc3ccccc23)cc(Br)c1OCC(=O)NC(C)(C)C
- EC50 [1]: 2.31 µM (active)
- EC50 [2]: > 30 µM (not active)

Compound: Cc1cc(NC(=O)c2cccs2)n(-c2nc3ccccc3[nH]2)n1
- EC50 [1]: 1.95 µM (active)
- EC50 [2]: 14.2 µM (active)

Compound: O=[N+]([O-])c1ccc(S(=O)(=O)NCCS(=O)(=O)N2CCN(c3ccccc3)CC2)cc1
- EC50 [1]: 0.247 µM (active)
- EC50 [2]: > 60 µM (not active)

Compound: N#Cc1ccc(CN2CC3(CCN(C(=O)c4ccncc4)CC3)C2)cc1
- AC50 [4]: 12.6 µM (inconclusive)

Compound: COCC(=O)N1CCC2(CC1)CN(c1ccncc1)C2
- AC50 [5]: 25.1 µM (inconclusive)

Compound: O=C(NNc1c(Cl)cccc1Cl)C1CCC1
- EC50 [3]: > 260 µM (inactive)

Compound: CC(=O)Nc1sc2c(c1CN1CCN(C)CC1)CCCC2
- AC50 [6]: 17.8 µM (inconclusive)

Compound: CCOc1cc(/C=N/O)cc(Cl)c1OC
- AC50 [4]: 31.6 µM (inconclusive)

Compound: COc1cc(/C=N/Nc2snc(SC)c2C#N)cc(OC)c1OC
- AC50 [5]: 12.6 µM (inconclusive)

Compound: C/C(=N\Nc1nc(N2CCCCC2)nc(N2CCOCC2)n1)c1ccccc1O
- EC50 [1]: 0.681 µM (active)
- EC50 [2]: 6.37 µM (active)

Compound: CN(C)CCCCNCCCNC(=O)/C=N\O
- EC50 [3]: > 260 µM (inactive)

Compound: CC1(C)CC[C@]2(C(=O)O)CC[C@]3(C)C(=CCC4[C@@]5(C)CC[C@H](O)C(C)(C)C5CC[C@]43C)C2C1 (stereo partly specified)
- EC50 [7]: 2.6 µM (active)

Compound: Cc1cc(Cn2ccnc2)c(C)c([N+](=O)[O-])c1Cn1ccnc1
- EC50 [1]: 2.05 µM (active)
- EC50 [2]: > 60 µM (not active)

Compound: COc1ccc2c(c1)c(CC(=O)O)c(C)n2C(=O)c1ccc(Cl)cc1 [INDOMETHACIN]
- AC50 [6]: 10 µM (inconclusive) and 39.8 µM (inconclusive)

Next, values leading:

- EC50 [3]: > 260 µM (inactive)
Compound: COc1cccc(NC(=O)CSc2nc(N)cc(N)n2)c1

- AC50 [6]: 20 µM (inconclusive)
Compound: CCOc1ccc(NC(=O)c2ccc(OC)cc2)cc1

- AC50 [6]: 10 µM (inconclusive)
Compound: CCOC(=O)NC(NC(=O)OCC)C(=O)c1ccc(F)cc1

- AC50 [6]: 1.41 µM (inconclusive)
- AC50 [4]: 31.6 µM (inconclusive)
Compound: COc1ccc(C(F)(F)F)cc1N/C=C\c1nnnn1-c1ccccc1

- EC50 [3]: > 260 µM (inactive)
Compound: O=C(CSc1nccn(-c2ccc(F)c(F)c2)c1=O)NC1CCCC1

- EC50 [3]: > 260 µM (inactive)
Compound: O=C(CCc1nnc(CCCCc2ccccc2)o1)NCCN1CCCCC1=O

- AC50 [5]: 1.58 µM (inconclusive)
Compound: O=C(c1ccccc1)[C@H](Nc1ccc2ccccc2c1)c1ccccc1

- AC50 [6]: 15.8 µM (inconclusive)
Compound: C=CCn1c(=O)c2c(nc(Br)n2Cc2ccccc2Cl)n(C)c1=O

- AC50 [6]: 17.8 µM (inconclusive)
Compound: COc1ccc([N+](=O)[O-])cc1N=C(S)NC(NC(=O)Cc1ccc(OC)c(OC)c1)C(Cl)(Cl)Cl (stereo unspecified)

- EC50 [3]: > 260 µM (inactive)
Compound: CCC(Sc1nc2cc3c(cc2c(=O)n1Cc1ccco1)OCO3)C(=O)NCCOC (stereo unspecified)

- EC50 [3]: > 260 µM (inactive)
Compound: COc1ccc(CCN=C(NS(=O)(=O)c2ccccc2)c2ccccc2)cc1OC

- EC50 [3]: > 260 µM (inactive)
Compound: COC(=O)CN1C(c2cccc(Cl)c2)=Nc2ccc(Cl)cc2C1c1ccccc1 (stereo unspecified)

- AC50 [6]: 25.1 µM (inconclusive)
Compound: COc1ccc(C(=O)N2CCC3(CC2)CCN(c2cccc(-c4ccccc4)c2)CC3)cc1

- EC50 [3]: 7.2 µM (active)
Compound: COc1ccc(C(=O)n2nc(C)cc2Nc2ccccc2)cc1

- AC50 [4]: 31.6 µM (inconclusive)
Compound: NCCNC(=O)c1ncsc1-c1cccc(F)c1

- EC50 [3]: > 260 µM (inactive)
Compound: CCN(CC)C(=O)c1ccc(C)c(Br)c1

- EC50 [3]: > 260 µM (inactive)
Compound: Cc1csc(-c2cnn(-c3ccccc3)c2NC(=O)c2cccc(C(F)(F)F)c2)n1

- AC50 [5]: 39.8 µM (inconclusive)
Compound: CS(=O)(=O)Nc1cccc(-c2nccc(Nc3ccc(F)cc3)n2)c1

- EC50 [3]: > 260 µM (inactive)
Compound: CC(=O)Nc1cccc(-n2nnc(SCC(=O)Nc3ccc(F)c(Cl)c3)n2)c1

- AC50 [6]: 3.16 µM (inconclusive)
- AC50 [4]: 31.6 µM (inconclusive)
Compound: O=C(Nc1nnc(SCc2ccc(Cl)cc2)s1)c1ccco1

- AC50 [5]: 14.1 µM (inconclusive)
Compound: CCCCOc1ccc(/C=C/C(=O)NCCc2nc3ccccc3[nH]2)cc1

- AC50 [6]: 2.51 µM (inconclusive)
Compound: CN(C)c1ncc2nc(-c3ccc(F)cc3)c(=O)n(CCc3ccccc3)c2n1

- EC50 [3]: > 260 µM (inactive)
Compound: Cc1c(N(C)S(=O)(=O)c2cccc(C(=O)NC(C)C)c2)c(=O)n(-c2ccccc2)n1C

- EC50 [3]: > 260 µM (inactive)
Compound: CCc1cccc(CC)c1NC(=O)COC(=O)CC1c2ccccc2CCN1S(=O)(=O)c1ccc(F)cc1 (stereo unspecified)

- EC50 [3]: > 260 µM (inactive)
Compound: CCN(CCCNC(=O)CNC(=O)c1nn(-c2ccc(OC)cc2OC)c(=O)c2ccccc12)c1cccc(C)c1

- AC50 [4]: 25.1 µM (inconclusive)
Compound: COc1cc2c(cc1OC)C(C(=O)N1CCOCC1)C(c1cccs1)N(C)C2=O (stereo unspecified)

- AC50 [6]: 25.1 µM (inconclusive)
- AC50 [4]: 15.8 µM (inconclusive)
Compound: COc1ccc(NC(=O)N2CCC3(CC2)CCN(C(=O)c2ccncc2)CC3)cc1

- AC50 [5]: 25.1 µM (inconclusive)
Compound: CN(C)C(=O)c1ccc(-c2nc(NCc3cccs3)c3ccccc3n2)cc1

- EC50 [3]: > 260 µM (inactive)
Compound: COC(=O)C(NNc1ccccc1C)(NC(=O)c1ccc(F)cc1)C(F)(F)F (stereo unspecified)

- EC50 [3]: > 260 µM (inactive)
Compound: CC(C)(C)c1cc(NC(=O)CCSc2nnc3ccccn23)cc(C(C)(C)C)c1

- AC50 [4]: 22.4 µM (inconclusive)
Compound: Cc1nn(CC(=O)NCc2ccccc2)c(C)c1[N+](=O)[O-]

- EC50 [3]: > 260 µM (inactive)
Compound: Cc1cnn(-c2cc(N/N=C/c3cccc(F)c3)ncn2)c1

- EC50 [3]: > 260 µM (inactive)
Compound: C(=N\N1CCN(Cc2cccc3ccccc23)CC1)/c1cccnc1

- AC50 [6]: 15.8 µM (inconclusive)
- AC50 [4]: 0.794 µM (inconclusive)
Compound: O=C(Nc1ccccc1)/C(=C\c1ccncc1)NC(=O)c1ccccc1
